pIC50: −log10 of the molar value. Like-named read-outs stand apart in the source and are kept apart here.
How the values were obtained:
[1] = test system: SARS-CoV-2; assay: microbe, parasite or virus in culture; format: cell-based; settings: for inhibition at 10 µM: screening criterion for Positives, 10 μM (FIG. 8), read-out: ability to inhibit infection
[2] = in vitro; settings: African green monkey
[3] = Severe acute respiratory syndrome coronavirus 2, Vero cells, SARS-CoV-2 MOI 0.0125, 24 hours, derived through the DRC, duplicate, read-out: IC50
[4] = Severe acute respiratory syndrome coronavirus 2, Vero cells
[5] = Severe acute respiratory syndrome coronavirus 2, Vero, 24 h

Work on `CNc1nc(-c2cccs2)nc2c1nc(C#Cc1ccccc1)n2[C@@H]1OCC(O)C1O` (stereo partly drawn) [Chemical Formula 2] yielded a pIC50 [1, 3] of 5.14, an inhibition at 10 µM [1, 4] of no less than 70% and a CC50 [2] greater than 50 µM.

Molecule `Nc1ncnc2c1ncn2[C@H]1C(O)C(O)[C@@H](CO)[C@H]1F` (stereo partly drawn) [Chemical Formula 1-1] has a pIC50 [1, 3] of 5.13, an inhibition at 10 µM [1, 4] of no less than 70% and a CC50 [2] greater than 50 µM.

Work on `CCN(CC)CCCC(C)Nc1ccnc2cc(Cl)ccc12` (stereo not drawn) [Chloroquine, chloroquine, reference compound] yielded a pIC50 [1, 5] of 5.01 and a CC50 [2] greater than 150 µM.

With `Cc1cccc(C)c1OCC(=O)N[C@@H](Cc1ccccc1)[C@@H](O)C[C@H](Cc1ccccc1)NC(=O)[C@H](C(C)C)N1CCCNC1=O` [Lopinavir, lopinavir, reference compound] the pIC50 [1, 5] was 4.68 and the CC50 [2] was greater than 50 µM.

With `CCC(CC)COC(=O)[C@H](C)N[P@](=O)(OC[C@H]1O[C@@](C#N)(c2ccc3c(N)ncnn23)[C@H](O)[C@@H]1O)Oc1ccccc1` [Remdesivir, remdesivir, reference compound] the pIC50 [1, 5] was 5.10 and the CC50 [2] was greater than 50 µM.

Work on `Nc1ncnc2c1ncn2[C@H]1C(O)C(O)[C@@H](CO)C1(F)F` (stereo partly drawn) [Chemical Formula 1-2] yielded a pIC50 [1, 3] of 5.51, an inhibition at 10 µM [1, 4] of no less than 70% and a CC50 [2] greater than 50 µM.
